# What was measured:
# HiBiT-BRM = molecular target: T1, HiBiT-BRM (Homo sapiens, UniProt P51531); assay: HiBiT-BRM cell-based degradation assay (Nano-Glo HiBiT Lytic Detection); settings: HeLa cells expressing HiBiT-BRM, 24 h; for DC50: read-out: BRM HiBit Degradation IC50
# T1 construct: expressed in transfected cells
# How it was run: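 HeLa cells stably expressing HiBiT-tagged BRM were treated for 24 h, then lysed with LgBiT-containing Nano-Glo reagent and luminescence read. % degradation scaled between DMSO (high control) and 2 μM reference BRM/BRG1 degrader (low control).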
# HiBit-BRG1 = molecular target: T2, HiBit-BRG1 (Homo sapiens, UniProt P51532); assay: HiBit-BRG1 cell-based degradation assay (Nano-Glo HiBiT Lytic Detection); settings: HeLa cells expressing HiBit-BRG1 and LgBit, 24 h; for DC50: read-out: BRG1 HiBit Degradation IC50; for Dmax: read-out: BRG1 HiBit Degradation Maximum (%)
# T2 construct: expressed in transfected cells
# How it was run: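 Luminescence from Nano-Glo HiBiT lytic detection, read after 24 h compound exposure, scored degradation in a stable HeLa HiBiT-BRG1/LgBit line seeded at 5000 cells/well. DMSO wells defined 0% and 2 μM known BRM/BRG1 degrader wells defined full degradation.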
# T1 sequence (P51531 whole entry): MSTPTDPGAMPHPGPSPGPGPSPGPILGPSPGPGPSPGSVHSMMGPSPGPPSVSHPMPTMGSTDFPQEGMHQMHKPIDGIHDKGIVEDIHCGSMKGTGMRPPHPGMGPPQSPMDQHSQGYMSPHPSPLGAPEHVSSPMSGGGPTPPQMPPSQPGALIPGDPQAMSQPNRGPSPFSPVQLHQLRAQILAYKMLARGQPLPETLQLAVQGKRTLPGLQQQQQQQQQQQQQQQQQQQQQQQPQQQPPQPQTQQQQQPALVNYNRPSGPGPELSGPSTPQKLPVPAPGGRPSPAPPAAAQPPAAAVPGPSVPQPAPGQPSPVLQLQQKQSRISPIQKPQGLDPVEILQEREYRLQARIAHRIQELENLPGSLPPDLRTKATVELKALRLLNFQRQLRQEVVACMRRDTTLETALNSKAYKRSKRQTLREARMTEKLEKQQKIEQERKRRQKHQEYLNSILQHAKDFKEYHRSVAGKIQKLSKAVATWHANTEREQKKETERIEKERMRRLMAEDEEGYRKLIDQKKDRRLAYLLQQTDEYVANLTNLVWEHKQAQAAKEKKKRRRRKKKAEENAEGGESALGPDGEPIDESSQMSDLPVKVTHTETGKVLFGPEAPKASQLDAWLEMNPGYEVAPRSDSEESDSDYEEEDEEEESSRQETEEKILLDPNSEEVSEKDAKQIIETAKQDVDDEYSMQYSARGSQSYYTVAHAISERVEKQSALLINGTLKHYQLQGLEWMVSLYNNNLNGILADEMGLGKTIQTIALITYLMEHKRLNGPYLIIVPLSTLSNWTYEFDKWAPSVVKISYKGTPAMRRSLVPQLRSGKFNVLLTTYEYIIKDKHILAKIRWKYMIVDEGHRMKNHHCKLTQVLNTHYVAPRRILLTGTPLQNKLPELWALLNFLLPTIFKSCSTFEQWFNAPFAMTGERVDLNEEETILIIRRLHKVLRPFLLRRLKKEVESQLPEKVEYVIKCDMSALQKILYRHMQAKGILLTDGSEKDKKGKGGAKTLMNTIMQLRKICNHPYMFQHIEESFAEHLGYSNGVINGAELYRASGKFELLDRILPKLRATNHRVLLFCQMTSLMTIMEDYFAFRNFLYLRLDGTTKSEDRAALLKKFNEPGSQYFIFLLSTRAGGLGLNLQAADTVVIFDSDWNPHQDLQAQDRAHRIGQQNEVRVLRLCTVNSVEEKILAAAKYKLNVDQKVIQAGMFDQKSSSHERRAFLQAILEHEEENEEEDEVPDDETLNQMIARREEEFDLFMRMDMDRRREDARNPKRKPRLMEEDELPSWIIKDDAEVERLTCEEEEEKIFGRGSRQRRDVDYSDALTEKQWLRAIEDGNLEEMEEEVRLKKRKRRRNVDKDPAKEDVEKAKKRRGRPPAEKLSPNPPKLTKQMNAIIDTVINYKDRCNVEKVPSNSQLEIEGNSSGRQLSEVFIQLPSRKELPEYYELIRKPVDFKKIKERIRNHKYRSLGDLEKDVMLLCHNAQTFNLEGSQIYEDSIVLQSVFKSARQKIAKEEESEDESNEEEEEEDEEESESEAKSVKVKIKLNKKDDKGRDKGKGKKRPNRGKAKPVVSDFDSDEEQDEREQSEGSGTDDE
# T2 sequence (P51532 whole entry): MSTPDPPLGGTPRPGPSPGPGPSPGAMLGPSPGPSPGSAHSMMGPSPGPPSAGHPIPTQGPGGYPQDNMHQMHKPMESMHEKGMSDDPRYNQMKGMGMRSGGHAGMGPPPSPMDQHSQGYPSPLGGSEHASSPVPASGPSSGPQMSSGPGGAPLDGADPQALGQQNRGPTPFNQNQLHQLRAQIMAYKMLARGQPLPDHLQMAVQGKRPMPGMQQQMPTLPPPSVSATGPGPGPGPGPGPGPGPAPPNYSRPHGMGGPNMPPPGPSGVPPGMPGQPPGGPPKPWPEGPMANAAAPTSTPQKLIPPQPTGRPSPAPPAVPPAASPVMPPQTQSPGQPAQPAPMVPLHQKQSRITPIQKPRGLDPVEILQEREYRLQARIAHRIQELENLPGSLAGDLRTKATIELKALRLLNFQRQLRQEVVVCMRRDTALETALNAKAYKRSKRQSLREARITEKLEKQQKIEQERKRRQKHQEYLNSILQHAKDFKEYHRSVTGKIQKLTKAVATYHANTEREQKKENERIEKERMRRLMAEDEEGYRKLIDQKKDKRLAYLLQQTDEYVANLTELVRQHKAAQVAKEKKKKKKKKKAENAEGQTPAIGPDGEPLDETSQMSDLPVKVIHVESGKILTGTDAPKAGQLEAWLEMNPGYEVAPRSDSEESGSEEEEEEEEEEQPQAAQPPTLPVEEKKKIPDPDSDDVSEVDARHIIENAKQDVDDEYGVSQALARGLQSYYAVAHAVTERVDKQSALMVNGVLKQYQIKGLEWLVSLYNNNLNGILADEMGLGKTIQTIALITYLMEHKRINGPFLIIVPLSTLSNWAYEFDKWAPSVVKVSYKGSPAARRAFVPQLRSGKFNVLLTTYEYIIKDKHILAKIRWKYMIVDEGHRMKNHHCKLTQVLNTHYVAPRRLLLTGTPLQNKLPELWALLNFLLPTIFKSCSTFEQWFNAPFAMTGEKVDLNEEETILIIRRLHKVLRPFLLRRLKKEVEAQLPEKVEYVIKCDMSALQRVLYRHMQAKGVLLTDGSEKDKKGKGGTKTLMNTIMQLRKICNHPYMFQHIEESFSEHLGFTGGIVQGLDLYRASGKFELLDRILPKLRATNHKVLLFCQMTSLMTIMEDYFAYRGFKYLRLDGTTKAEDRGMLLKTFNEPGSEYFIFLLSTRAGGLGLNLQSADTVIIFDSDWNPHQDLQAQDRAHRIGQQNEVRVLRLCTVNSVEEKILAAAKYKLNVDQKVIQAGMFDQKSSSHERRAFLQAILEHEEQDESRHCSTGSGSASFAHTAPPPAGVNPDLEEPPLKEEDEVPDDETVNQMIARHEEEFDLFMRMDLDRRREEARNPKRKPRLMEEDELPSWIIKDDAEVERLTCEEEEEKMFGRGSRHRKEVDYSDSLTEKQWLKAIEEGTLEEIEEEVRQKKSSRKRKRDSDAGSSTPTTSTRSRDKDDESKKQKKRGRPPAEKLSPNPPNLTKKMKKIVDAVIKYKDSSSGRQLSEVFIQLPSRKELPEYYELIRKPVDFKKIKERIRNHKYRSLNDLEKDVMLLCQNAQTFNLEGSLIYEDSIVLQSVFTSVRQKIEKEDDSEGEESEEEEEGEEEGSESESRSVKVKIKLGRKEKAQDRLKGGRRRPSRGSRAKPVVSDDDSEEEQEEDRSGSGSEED
Structure (SMILES),DC50 (HiBiT-BRM) [µM],DC50 (HiBit-BRG1) [µM],Dmax (HiBit-BRG1) [%],BRM HiBit Degradation Maximum (%) (HiBiT-BRM)
"Cc1ncsc1-c1ccc([C@H](C)NC(=O)[C@@H]2C[C@@H](O)CN2C(=O)[C@@H](c2cc(OCCN3CC(CC(=O)NCc4ccc(CCOc5cc(-c6ccccc6O)nnc5N)cc4)C3)no2)C(C)C)cc1 [Compound 193, (2S,4R)-1-[2-[3-(2-[3-[([[4-(2-[[3-amino-6-(2-hydroxyphenyl)pyridazin-4-yl]oxy]ethyl)phenyl]methyl]carbamoyl)methyl]azetidin-1-yl]ethoxy)-1,2-oxazol-5-yl]-3-methylbutanoyl]-4-hydroxy-N-[(1S)-1-[4-(4-methyl-1,3-thiazol-5-yl)phenyl]ethyl]pyrrolidine-2-carboxamide]",> 0.1,> 1,< 50,B (“B” indicates maximum degradation ≥50%)
Cc1ncsc1-c1ccc([C@H](C)NC(=O)[C@@H]2C[C@@H](O)CN2C(=O)[C@@H](c2cc(OCCN3C[C@@H]4[C@H](C3)[C@H]4C(=O)NCc3ccc(CCOc4cc(-c5ccccc5O)nnc4N)cc3)no2)C(C)C)cc1 [Compound 194],> 0.01,> 0.1,> 75,A (“A” indicates maximum degradation ≥75%)
"Cc1ncsc1-c1ccc([C@H](C)NC(=O)[C@@H]2C[C@@H](O)CN2C(=O)[C@@H](c2cc(OCCN3CCC4(CC3)CC(C(=O)NCc3ccc(CCOc5cc(-c6ccccc6O)nnc5N)cc3)C4)no2)C(C)C)cc1 [Compound 195, N-(4-(2-((3-amino-6-(2-hydroxyphenyl)pyridazin-4-yl)oxy)ethyl)benzyl)-7-(2-((5-((R)-1-((2S,4R)-4-hydroxy-2-(((S)-1-(4-(4-methylthiazol-5-yl)phenyl)ethyl)carbamoyl)pyrrolidin-1-yl)-3-methyl-1-oxobutan-2-yl)isoxazol-3-yl)oxy)ethyl)-7-azaspiro[3.5]nonane-2-carboxamide]",> 0.01,> 0.1,> 75,A (“A” indicates maximum degradation ≥75%)
"Cc1ncsc1-c1ccc([C@H](C)NC(=O)[C@@H]2C[C@@H](O)CN2C(=O)[C@@H](NC(=O)CCCCCCCCCCCCCC(=O)N(C)Cc2ccc(CCOc3cc(-c4ccccc4O)nnc3N)cc2)C(C)(C)C)cc1 [Compound 197, N1-(4-(2-((3-amino-6-(2-hydroxyphenyl)pyridazin-4-yl)oxy)ethyl)benzyl)-N15-((S)-1-((2S,4R)-4-hydroxy-2-(((S)-1-(4-(4-methylthiazol-5-yl)phenyl)ethyl)carbamoyl)pyrrolidin-1-yl)-3,3-dimethyl-1-oxobutan-2-yl)-N1-methylpentadecanediamide]",> 0.01,> 1,< 50,A (“A” indicates maximum degradation ≥75%)
"Cc1ncsc1-c1ccc([C@H](C)NC(=O)[C@@H]2C[C@@H](O)CN2C(=O)[C@@H](NC(=O)CCCCCCCCCC(=O)NCc2ccc(CCOc3cc(-c4ccccc4O)nnc3N)cc2)C(C)(C)C)cc1 [Compound 198, N1-(4-(2-((3-amino-6-(2-hydroxyphenyl)pyridazin-4-yl)oxy)ethyl)benzyl)-N11-((S)-1-((2S,4R)-4-hydroxy-2-(((S)-1-(4-(4-methylthiazol-5-yl)phenyl)ethyl)carbamoyl)pyrrolidin-1-yl)-3,3-dimethyl-1-oxobutan-2-yl)undecanediamide]",> 0.01,> 1,< 50,A (“A” indicates maximum degradation ≥75%)
"Cc1ncsc1-c1ccc(CNC(=O)[C@@H]2C[C@@H](O)CN2C(=O)[C@@H](NC(=O)CCN2CCC(OC3CCN(C(=O)c4ccc(CCOc5cc(-c6ccccc6O)nnc5N)cc4)CC3)CC2)C(C)(C)C)cc1 [Compound 202, (2S,4R)-1-((S)-2-(3-(4-((1-(4-(2-((3-amino-6-(2-hydroxyphenyl)pyridazin-4-yl)oxy)ethyl)benzoyl)piperidin-4-yl)oxy)piperidin-1-yl)propanamido)-3,3-dimethylbutanoyl)-4-hydroxy-N-(4-(4-methylthiazol-5-yl)benzyl)pyrrolidine-2-carboxamide]",> 1,> 1,< 50,B (“B” indicates maximum degradation ≥50%)
"Cc1ncsc1-c1ccc([C@H](C)NC(=O)[C@@H]2C[C@@H](O)CN2C(=O)[C@@H](c2cc(OCCNCc3ccc(CCOc4cc(-c5ccccc5O)nnc4N)cc3)no2)C(C)C)cc1 [Compound 205, (2S,4R)-1-[(2R)-2-[3-[2-([[4-(2-[[3-amino-6-(2-hydroxyphenyl)pyridazin-4-yl]oxy]ethyl)phenyl]methyl]amino)ethoxy]-1,2-oxazol-5-yl]-3-methylbutanoyl]-4-hydroxy-N-[(1S)-1-[4-(4-methyl-1,3-thiazol-5-yl)phenyl]ethyl]pyrrolidine-2-carboxamide]",< 0.01,> 0.1,> 75,A (“A” indicates maximum degradation ≥75%)

# Now from value to molecule, other results behind:
DC50 (HiBiT-BRM) [µM],DC50 (HiBit-BRG1) [µM],Dmax (HiBit-BRG1) [%],Structure (SMILES),BRM HiBit Degradation Maximum (%) (HiBiT-BRM)
> 1,> 1,< 50,"Cc1ncsc1-c1ccc(CNC(=O)[C@@H]2C[C@@H](O)CN2C(=O)[C@@H](NC(=O)CCN2CC3(C2)CN(CC(=O)NCc2ccc(CCOc4cc(-c5ccccc5O)nnc4N)cc2)C3)C(C)(C)C)cc1 [Compound 196, (2S,4R)-1-((S)-2-(3-(6-(2-((4-(2-((3-amino-6-(2-hydroxyphenyl)pyridazin-4-yl)oxy)ethyl)benzyl)amino)-2-oxoethyl)-2,6-diazaspiro[3.3]heptan-2-yl)propanamido)-3,3-dimethylbutanoyl)-4-hydroxy-N-(4-(4-methylthiazol-5-yl)benzyl)pyrrolidine-2-carboxamide]",C (“C” indicates maximum degradation <50%)
> 1,> 1,< 50,"Cc1ncsc1-c1ccc(CNC(=O)[C@@H]2C[C@@H](O)CN2C(=O)[C@@H](NC(=O)CCN2CC(C3CCN(C(=O)c4ccc(CCOc5cc(-c6ccccc6O)nnc5N)cc4)CC3)C2)C(C)(C)C)cc1 [Compound 199, (2S,4R)-1-((S)-2-(3-(3-(1-(4-(2-((3-amino-6-(2-hydroxyphenyl)pyridazin-4-yl)oxy)ethyl)benzoyl)piperidin-4-yl)azetidin-1-yl)propanamido)-3,3-dimethylbutanoyl)-4-hydroxy-N-(4-(4-methylthiazol-5-yl)benzyl)pyrrolidine-2-carboxamide]",C (“C” indicates maximum degradation <50%)
> 1,> 1,< 50,"Cc1ncsc1-c1ccc(CNC(=O)[C@@H]2C[C@@H](O)CN2C(=O)[C@@H](NC(=O)CCN2CC3(C2)CN(C(=O)c2ccc(CCOc4cc(-c5ccccc5O)nnc4N)cc2)C3)C(C)(C)C)cc1 [Compound 200, (2S,4R)-1-((S)-2-(3-(6-(4-(2-((3-amino-6-(2-hydroxyphenyl)pyridazin-4-yl)oxy)ethyl)benzoyl)-2,6-diazaspiro[3.3]heptan-2-yl)propanamido)-3,3-dimethylbutanoyl)-4-hydroxy-N-(4-(4-methylthiazol-5-yl)benzyl)pyrrolidine-2-carboxamide]",C (“C” indicates maximum degradation <50%)
> 1,> 1,< 50,"Cc1ncsc1-c1ccc(CNC(=O)[C@@H]2C[C@@H](O)CN2C(=O)[C@@H](NC(=O)CCN2CCC3(CC2)CCN(C(=O)c2ccc(CCOc4cc(-c5ccccc5O)nnc4N)cc2)CC3)C(C)(C)C)cc1 [Compound 201, (2S,4R)-1-((S)-2-(3-(9-(4-(2-((3-amino-6-(2-hydroxyphenyl)pyridazin-4-yl)oxy)ethyl)benzoyl)-3,9-diazaspiro[5.5]undecan-3-yl)propanamido)-3,3-dimethylbutanoyl)-4-hydroxy-N-(4-(4-methylthiazol-5-yl)benzyl)pyrrolidine-2-carboxamide]",B (“B” indicates maximum degradation ≥50%)
> 1,> 1,< 50,"Cc1ncsc1-c1ccc(CNC(=O)[C@@H]2C[C@@H](O)CN2C(=O)[C@@H](NC(=O)CCN2C[C@@H]3CN(C(=O)c4ccc(CCOc5cc(-c6ccccc6O)nnc5N)cc4)C[C@@H]3C2)C(C)(C)C)cc1 [Compound 203, (2S,4R)-1-((2S)-2-(3-(5-(4-(2-((3-amino-6-(2-hydroxyphenyl)pyridazin-4-yl)oxy)ethyl)benzoyl)hexahydropyrrolo[3,4-c]pyrrol-2(1H)-yl)propanamido)-3,3-dimethylbutanoyl)-4-hydroxy-N-(4-(4-methylthiazol-5-yl)benzyl)pyrrolidine-2-carboxamide]",B (“B” indicates maximum degradation ≥50%)
> 1,> 1,< 50,"Cc1ncsc1-c1ccc(CNC(=O)[C@@H]2C[C@@H](O)CN2C(=O)[C@@H](NC(=O)CCN2CCC(C3CN(C(=O)c4ccc(CCOc5cc(-c6ccccc6O)nnc5N)cc4)C3)CC2)C(C)(C)C)cc1 [Compound 204, (2S,4R)-1-((S)-2-(3-(4-(1-(4-(2-((3-amino-6-(2-hydroxyphenyl)pyridazin-4-yl)oxy)ethyl)benzoyl)azetidin-3-yl)piperidin-1-yl)propanamido)-3,3-dimethylbutanoyl)-4-hydroxy-N-(4-(4-methylthiazol-5-yl)benzyl)pyrrolidine-2-carboxamide]",B (“B” indicates maximum degradation ≥50%)

# From patent US20230150974A1 (Foghorn Therapeutics Inc., priority 2020, published 2023)
